Assay type in all cases: cell-based, human
Assay [1] has as its system hPSC-derived NSCs. Briefly: Regional identity of hPSC-derived NSCs at 9 DDC after RA pulse in dSMADi conditions. The protocol: Cells were fixed for 12 min at room temperature (RT) in 4% paraformaldehyde in PBS, rinsed 3 times in PBST (PBS with 0.1% Triton-X100), and blocked for 1 hour at RT with blocking solution (3% FCS/0.1% Triton-X100 in PBS). Cells were then incubated with primary antibodies overnight at 4° C., followed by incubation with fluorophore-conjugated secondary antibodies for 1 hour at RT. Both primary and fluorophore-conjugated secondary antibodies were diluted in blocking solution. Primary antibodies used are listed in Supplementary Table 1. Appropriate Alexa (488, 555, 647)-conjugated secondary antibodies (Molecular Probes) were used.

In assay [2] the test system is hESCs. Briefly: Conversion of hPSCs into NSCs (OCT4, SOX1, PAX6 expression) in dSMADi cultures. As to the method: To explore the activities of RA on hESCs directed to adopt a neural fate in response to dSMADi^14, we treated cultures with 200 nM all-trans RA for the first 1, 2, 3 or 4 days of differentiation (RA^1D, RA^2D, RA^3D, RA^4D) (FIG. 1a) and monitored fate and identity of cells at different stages by immunoblotting, quantitative immunocytochemistry, qPCR or RNA-sequencing (RNA-seq). […] Induction of SOX1 and PAX6 at low levels occurred at 3 DDC (FIG. 1b). OCT4 and SOX1 were co-expressed by cells between 3-4 DDC (FIG. 1b, c; FIG. 7a (Supplementary FIG. 1a)) showing that the conversion of hPSCs into NSCs in response to dSMADi-treatment encompass a protracted time-window over which expression of pluripotency- and neural-specific genes overlap. […] By 7 DDC, SOX1 and neural marker NESTIN were expressed at similar levels in dSMADi-only and in dSMADi+RA^2D cultures (FIG. 1d). […] Endodermal or mesodermal lineage markers were not expressed (FIG. 7b (Supplementary FIG. 1b)). In dSMADi+RA^2D conditions, prompt suppression of OCT4 and fast upregulation of SOX1 was attained within a concentration range of RA between 50-500 nM (FIG. 1g). […] Thus, combining dSMADi treatment with exposure of hPSCs to RA for 48 hours or longer promotes a rapid and switch-like transition from pluripotency into a NSC-state.
80-90% confluent PSCs cultures were rinsed twice with PBS, treated with EDTA (0.5 mM in PBS) for 5-7 min, and resuspended into single cell suspension in PBS. Cells were spin down at 400 g and resuspended in N2B27 medium (DMEM/F12: Neurobasal (1:1), 0.5×N2 and 0.5×B27 (plus vitamin A) supplements, 1×nonessential amino acids, 1% GlutaMAX, 55 μM β-mercaptoethanol-all from Thermo Fisher Scientific) containing 5 μM SB431542 (Miltenyi Biotech) and 2.5 μM DMH1 (Santa Cruz Biotech) (dual SMAD inhibition), and 10 μM ROCK inhibitor (for the first 48 hours after seeding). Cells were seeded on VTN (2 μg/cm^2) and Fibronectin (FN) (2 μg/cm^2) (Sigma) coated surface at a density of 60,000-80,000 cells/cm^2 for RA- and RA-analogues based experiments, and 20,000 cells/cm^2 for CHIR99021 experiments. […]

Assay [3] relates to hPSC-derived NSCs. Briefly: Ventral regional identity of hPSC-derived NSCs at 9 DDC in dSMADi+SAG conditions (NKX2.1, LMX1A, PHOX2B, NKX2.2). The following applies: 9 DDC.
Assay [4] concerns CYP26A1. Briefly: CYP26A1 expression in hPSC cultures. The following applies: 50-1,000 nM RA, dSMADi.
Protocol: (d) Effect of RA concentration (50, 100, 300, 500 and 1,000 nM RA) on CYP26A1 expression in 1 DDC cultures differentiated in dSMADi-condition. (e) Temporal expression profile of CYP26A1 in cultures differentiated in dSMADi and pulsed with no RA or 300, 500 or 1,000 nM of RA for 2 days. […] (g) Relative gene expression of indicated genes in 9 DDC cultures differentiated in RA^1D+SAG condition and in the presence of different concentrations of the CYP26 inhibitor R115866. […] (c-e) values, mean±S.D.
Total RNA was isolated using Quick-RNA Mini Prep Plus kit (Zymo Research). cDNA was prepared using Maxima First Strand cDNA synthesis kit (Thermo Fisher Scientific). Quantitative Real-Time PCR was performed in a 7500 Fast Real Time PCR system thermal cycler using Fast SYBR Green PCR Master Mix (Applied Biosystems). Analysis of gene expression was performed using the 2-ΔΔCt method, where relative gene expression was normalized to GAPDH transcript levels.

The values that follow come from patent publication US20230233617A1, “METHODS FOR DIFFERENTIATING STEM CELLS INTO DOPAMINERGIC PROGENITOR CELLS” (JZ CELL TECHNOLOGIES AB, priority 2020, published 2023).

Turning to `CC1=C(/C=C/C(C)=C/C=C/C(C)=C/C(=O)O)C(C)(C)CCC1` [RA, all-trans retinoic acid], the “regional identity of NSCs” value in assay [1] (200 nM RA for 1 day (RA^1D)) is reported as “FB-like character”; in assay [1] (200 nM RA for 2 days (RA^2D)) it was “FOXG1^−/OTX2^+/HOXA2^− MB-like character”; in assay [1] (200 nM RA for 3 days (RA^3D)), “FOXG1^−/OTX2^−/HOXA2^+/HOXB4^− rostral HB”; in assay [1] (200 nM RA for 4 days (RA^4D)), “FOXG1^−/OTX2^−/HOXA2^+/HOXB4^+ caudal HB”. Further, the “rapid OCT4 suppression and fast upregulation of SOX1” value in assay [2] (200 nM RA for one day (dSMADi+RA^1D)) is “not sufficient to promote rapid OCT4 suppression nor fast upregulation of SOX1”. Further, in assay [2] (dSMADi and 200 nM RA for two days or longer), the OCT4 expression entry is “expression of OCT4 had essentially been extinguished by 3 DDC”. The “concentration range of RA giving prompt suppression of OCT4 and fast upregulation of SOX1” value in assay [2] (dSMADi+RA^2D, 3 DDC) is 50 to 500 nM. Also, the “ventral identity of NSCs” value was “expressed the FB-specific markers FOXG1, SIX3, SIX6, and LHX2” in assay [3] (RA^1D+SAG); “LMX1A^+/LMX1B^+/FOXA2^+/OTX2^+ identity characteristic of vMB mDA neuron progenitors” in assay [3] (RA^2D+SAG); “expressed HOX genes and the ventral markers NKX2.2, PHOX2B, NKX6.1, and NKX6.2 typical of cranial motor neuron (MN) progenitors of the HB” in assay [3] (RA^3D+SAG or RA^4D+SAG). Further, the “identity of NSCs” value in assay [3] (RA^2D+SAG, 100 nM or 800 nM RA) is reported as “LMX1A^+/NKX2.1^− NSCs were generated but at lower numbers”. In addition, the “RA concentration at which the vast majority of NSCs expressed LMX1A+/NKX2.1− vMB-identity” value in assay [3] (RA^2D+SAG) lay in the range of 200 to 400 nM. The “time at which the 48 hour RA-pulse must be initiated for effective induction of vMB NSC identity” value in assay [3] (dSMADi+SAG) was 0-2 DDC. Also, the CYP26A1 expression result in assay [4] is “concentration-dependent activation and adaptive temporal expression of CYP26A1”.
